Test results from publication PMC4526387 (Clinical cancer research : an official journal of the …, 2015).
Like-named read-outs stand apart in the source and are kept apart here.

Columns and labels:
[1] = tested on: metastatic renal cell carcinoma (mRCC); type: in vivo, human; conditions: rise in MMP-9 and SCF and fall in SHBG and SAP
advanced solid tumors = conditions: 21 patients, cited from earlier work
[2] = tested on: metastatic renal cell carcinoma (mRCC); conditions: subset with one prior VEGF-TKI; ref AXIS trial; cited from earlier work
[3] = Phase I PK of everolimus in whole blood; type: in vivo, human; conditions: 6-hour collection interval, everolimus 10 mg daily
[4] = tested on: metastatic renal cell carcinoma (mRCC); test: Randomized phase II: 6MPFS, PFS, response; type: in vivo, human
[5] = Randomized phase II: adverse events; type: in vivo, human
[6] = cited from earlier work
[7] = tested on: metastatic renal cell carcinoma (mRCC); conditions: subset with one prior VEGF-TKI; ref RECORD-1 trial; cited from earlier work

COc1cc(C(=O)c2c(C)oc3c(OP(=O)([O-])[O-])c(OC)ccc23)cc(OC)c1OC.[Na+].[Na+] [BNC105P]
patients progression free at 6 months, selected population [1]: 60%
objective responses (advanced solid tumors): no objective responses
patients with stable disease (SD) as best response (advanced solid tumors): 4 patients
intravenous dose identified for further studies (advanced solid tumors; days 1 and 8 of a 21-day cycle): 16 mg/m^2

CNC(=O)c1ccccc1Sc1ccc2c(/C=C/c3ccccn3)n[nH]c2c1 [axitinib]
median PFS [2]: 4.8 months

CO[C@H]1C[C@@H]2CC[C@@H](C)[C@@](O)(O2)C(=O)C(=O)N2CCCC[C@H]2C(=O)O[C@H]([C@H](C)C[C@@H]2CC[C@@H](OCCO)[C@H](OC)C2)CC(=O)[C@H](C)/C=C(\C)[C@@H](O)[C@@H](OC)C(=O)[C@H](C)C[C@H](C)/C=C/C=C/C=C/1C [everolimus]
overall mean concentration [3]: 17.8 ng/mL
6-month progression-free survival (6MPFS) ([4]; phase II): 30.30%
partial responses (number) ([4]; phase II): 2
median PFS amongst patients with liver metastasis ([4]; phase II exploratory analysis): 2.8 months
Abdominal pain % ([5]; % of arm): 10.4%
Acneiform rash % ([5]; % of arm): 10.4%
Anorexia % ([5]; % of arm): 23.9%
Back pain % ([5]; % of arm): 26.9%
Constipation % ([5]; % of arm): 22.4%
Cough % ([5]; % of arm): 20.9%
Diarrhea % ([5]; % of arm): 23.9%
Dyspnea % ([5]; % of arm): 31.3%
Epistaxis/Respiratory tract hemorrhage % ([5]; % of arm): 11.9%
Extremity pain % ([5]; % of arm): 13.4%
Fatigue % ([5]; % of arm): 44.8%
Fever % ([5]; % of arm): 17.9%
Headache % ([5]; % of arm): 16.4%
Insomnia % ([5]; % of arm): 16.4%
Lower extremity % ([5]; % of arm): 19.4%
Nausea % ([5]; % of arm): 23.9%
Nausea/Vomiting % ([5]; % of arm): 16.4%
Proteinuria % ([5]; % of arm): 14.9%
Pruritus % ([5]; % of arm): 7.5%
Rash % ([5]; % of arm): 22.4%
Skin changes % ([5]; % of arm): 20.9%
Stomatitis % ([5]; % of arm): 28.4%
Taste alteration % ([5]; % of arm): 14.9%
Elevated ALT % ([5]; laboratory, % of arm): 10.4%
Elevated AST % ([5]; laboratory, % of arm): 11.9%
Elevated alkaline phosphatise % ([5]; laboratory, % of arm): 14.9%
Elevated creatinine % ([5]; laboratory, % of arm): 11.9%
Hypercholesterolemia % ([5]; laboratory, % of arm): 28.4%
Hyperglycemia % ([5]; laboratory, % of arm): 25.4%
Hypertriglyceridemia % ([5]; laboratory, % of arm): 31.3%
Hyponatremia % ([5]; laboratory, % of arm): 11.9%
Low hemoglobin % ([5]; laboratory, % of arm): 37.3%
Thrombocytopenia % ([5]; laboratory, % of arm): 14.9%
Elevated ALT Grade 1/2 ([5]; laboratory, number of patients): 7
Elevated ALT Grade 3/4 ([5]; laboratory, number of patients): 0
Elevated ALT Grade 5 ([5]; laboratory, number of patients): 0
Elevated ALT Total ([5]; laboratory, number of patients): 7
Elevated AST Grade 1/2 ([5]; laboratory, number of patients): 8
Elevated AST Grade 3/4 ([5]; laboratory, number of patients): 0
Elevated AST Grade 5 ([5]; laboratory, number of patients): 0
Elevated AST Total ([5]; laboratory, number of patients): 8
Elevated alkaline phosphatise Grade 1/2 ([5]; laboratory, number of patients): 9
Elevated alkaline phosphatise Grade 3/4 ([5]; laboratory, number of patients): 1
Elevated alkaline phosphatise Grade 5 ([5]; laboratory, number of patients): 0
Elevated alkaline phosphatise Total ([5]; laboratory, number of patients): 10
Elevated creatinine Grade 1/2 ([5]; laboratory, number of patients): 5
Elevated creatinine Grade 3/4 ([5]; laboratory, number of patients): 3
Elevated creatinine Grade 5 ([5]; laboratory, number of patients): 0
Elevated creatinine Total ([5]; laboratory, number of patients): 8
Hypercholesterolemia Grade 1/2 ([5]; laboratory, number of patients): 19
Hypercholesterolemia Grade 3/4 ([5]; laboratory, number of patients): 0
Hypercholesterolemia Grade 5 ([5]; laboratory, number of patients): 0
Hypercholesterolemia Total ([5]; laboratory, number of patients): 19
Hyperglycemia Grade 1/2 ([5]; laboratory, number of patients): 12
Hyperglycemia Grade 3/4 ([5]; laboratory, number of patients): 5
Hyperglycemia Grade 5 ([5]; laboratory, number of patients): 0
Hyperglycemia Total ([5]; laboratory, number of patients): 17
Hypertriglyceridemia Grade 1/2 ([5]; laboratory, number of patients): 17
Hypertriglyceridemia Grade 3/4 ([5]; laboratory, number of patients): 4
Hypertriglyceridemia Grade 5 ([5]; laboratory, number of patients): 0
Hypertriglyceridemia Total ([5]; laboratory, number of patients): 21
Hyponatremia Grade 1/2 ([5]; laboratory, number of patients): 5
Hyponatremia Grade 3/4 ([5]; laboratory, number of patients): 3
Hyponatremia Grade 5 ([5]; laboratory, number of patients): 0
Hyponatremia Total ([5]; laboratory, number of patients): 8
Low hemoglobin Grade 1/2 ([5]; laboratory, number of patients): 19
Low hemoglobin Grade 3/4 ([5]; laboratory, number of patients): 6
Low hemoglobin Grade 5 ([5]; laboratory, number of patients): 0
Low hemoglobin Total ([5]; laboratory, number of patients): 25
Thrombocytopenia Grade 1/2 ([5]; laboratory, number of patients): 8
Thrombocytopenia Grade 3/4 ([5]; laboratory, number of patients): 2
Thrombocytopenia Grade 5 ([5]; laboratory, number of patients): 0
Thrombocytopenia Total ([5]; laboratory, number of patients): 10
Abdominal pain Grade 1/2 ([5]; number of patients): 5
Abdominal pain Grade 3/4 ([5]; number of patients): 2
Abdominal pain Grade 5 ([5]; number of patients): 0
Abdominal pain Total ([5]; number of patients): 7
Acneiform rash Grade 1/2 ([5]; number of patients): 7
Acneiform rash Grade 3/4 ([5]; number of patients): 0
Acneiform rash Grade 5 ([5]; number of patients): 0
Acneiform rash Total ([5]; number of patients): 7
Anorexia Grade 1/2 ([5]; number of patients): 15
Anorexia Grade 3/4 ([5]; number of patients): 1
Anorexia Grade 5 ([5]; number of patients): 0
Anorexia Total ([5]; number of patients): 16
Back pain Grade 1/2 ([5]; number of patients): 12
Back pain Grade 3/4 ([5]; number of patients): 6
Back pain Grade 5 ([5]; number of patients): 0
Back pain Total ([5]; number of patients): 18
Constipation Grade 1/2 ([5]; number of patients): 15
Constipation Grade 3/4 ([5]; number of patients): 0
Constipation Grade 5 ([5]; number of patients): 0
Constipation Total ([5]; number of patients): 15
Cough Grade 1/2 ([5]; number of patients): 13
Cough Grade 3/4 ([5]; number of patients): 1
Cough Grade 5 ([5]; number of patients): 0
Cough Total ([5]; number of patients): 14
Diarrhea Grade 1/2 ([5]; number of patients): 16
Diarrhea Grade 3/4 ([5]; number of patients): 0
Diarrhea Grade 5 ([5]; number of patients): 0
Diarrhea Total ([5]; number of patients): 16
Dyspnea Grade 1/2 ([5]; number of patients): 17
Dyspnea Grade 3/4 ([5]; number of patients): 4
Dyspnea Grade 5 ([5]; number of patients): 0
Dyspnea Total ([5]; number of patients): 21
Epistaxis/Respiratory tract hemorrhage Grade 1/2 ([5]; number of patients): 8
Epistaxis/Respiratory tract hemorrhage Grade 3/4 ([5]; number of patients): 0
Epistaxis/Respiratory tract hemorrhage Grade 5 ([5]; number of patients): 0
Epistaxis/Respiratory tract hemorrhage Total ([5]; number of patients): 8
Extremity pain Grade 1/2 ([5]; number of patients): 8
Extremity pain Grade 3/4 ([5]; number of patients): 1
Extremity pain Grade 5 ([5]; number of patients): 0
Extremity pain Total ([5]; number of patients): 9
Fatigue Grade 1/2 ([5]; number of patients): 24
Fatigue Grade 3/4 ([5]; number of patients): 6
Fatigue Grade 5 ([5]; number of patients): 0
Fatigue Total ([5]; number of patients): 30
Fever Grade 1/2 ([5]; number of patients): 10
Fever Grade 3/4 ([5]; number of patients): 2
Fever Grade 5 ([5]; number of patients): 0
Fever Total ([5]; number of patients): 12
Headache Grade 1/2 ([5]; number of patients): 10
Headache Grade 3/4 ([5]; number of patients): 1
Headache Grade 5 ([5]; number of patients): 0
Headache Total ([5]; number of patients): 11
Insomnia Grade 1/2 ([5]; number of patients): 11
Insomnia Grade 3/4 ([5]; number of patients): 0
Insomnia Grade 5 ([5]; number of patients): 0
Insomnia Total ([5]; number of patients): 11
Lower extremity Grade 1/2 ([5]; number of patients): 13
Lower extremity Grade 3/4 ([5]; number of patients): 0
Lower extremity Grade 5 ([5]; number of patients): 0
Lower extremity Total ([5]; number of patients): 13
Nausea Grade 1/2 ([5]; number of patients): 14
Nausea Grade 3/4 ([5]; number of patients): 2
Nausea Grade 5 ([5]; number of patients): 0
Nausea Total ([5]; number of patients): 16
Nausea/Vomiting Grade 1/2 ([5]; number of patients): 9
Nausea/Vomiting Grade 3/4 ([5]; number of patients): 2
Nausea/Vomiting Grade 5 ([5]; number of patients): 0
Nausea/Vomiting Total ([5]; number of patients): 11
Proteinuria Grade 1/2 ([5]; number of patients): 10
Proteinuria Grade 3/4 ([5]; number of patients): 0
Proteinuria Grade 5 ([5]; number of patients): 0
Proteinuria Total ([5]; number of patients): 10
Pruritus Grade 1/2 ([5]; number of patients): 4
Pruritus Grade 3/4 ([5]; number of patients): 1
Pruritus Grade 5 ([5]; number of patients): 0
Pruritus Total ([5]; number of patients): 5
Rash Grade 1/2 ([5]; number of patients): 15
Rash Grade 3/4 ([5]; number of patients): 0
Rash Grade 5 ([5]; number of patients): 0
Rash Total ([5]; number of patients): 15
Skin changes Grade 1/2 ([5]; number of patients): 11
Skin changes Grade 3/4 ([5]; number of patients): 3
Skin changes Grade 5 ([5]; number of patients): 0
Skin changes Total ([5]; number of patients): 14
Stomatitis Grade 1/2 ([5]; number of patients): 13
Stomatitis Grade 3/4 ([5]; number of patients): 6
Stomatitis Grade 5 ([5]; number of patients): 0
Stomatitis Total ([5]; number of patients): 19
Taste alteration Grade 1/2 ([5]; number of patients): 10
Taste alteration Grade 3/4 ([5]; number of patients): 0
Taste alteration Grade 5 ([5]; number of patients): 0
Taste alteration Total ([5]; number of patients): 10
half-life [6]: 26 to 38 h
mean trough concentration at steady state ([6]; patients who received 10 mg everolimus daily): 13.2 ng/mL
median PFS [7]: 5.4 months
